Laboratory results as given in US20110053993A1, “PRODRUGS OF DESAZADESFERROTHIOCIN POLYETHER ANALOGUES AS METAL CHELATION AGENTS” (FERROKIN BIOSCIENCES, INC., priority 2009, published 2011).

Experiment: In vitro pharmacokinetic (metabolic) stability in human whole blood
Type: in vitro ADME
Conditions: 5 μM test compound, 37° C., time points 0, 0.5, 1, 4, 6 and 24 hours, LC/MS/MS, percent compound remaining
Description: In Vitro Pharmacokinetic Stability Evaluation
Compounds were tested for metabolic stability in human whole blood. Such testing is commonly undertaken prior to or along with advanced preclinical testing in order to identify compounds with desirable pharmacokinetic properties. Into each of 6 centrifuge tubes was added 2 μL of test compound and 198 μL of human whole blood, taken from normal, healthy volunteers, to achieve a final concentration of 5 μM. Tubes were then incubated at 37° C. at approximately 100 rpm on an orbital shaker. One of the tubes was taken at designated time points including 0, 0.5, 1, 4, 6 and 24 hours. The reaction was stopped by the addition of 4 volumes of cold methanol. Samples were centrifuged at 20,000 rpm for 20 minutes to precipitate protein. A 200 μL aliquot of the supernatant was used for LC/MS/MS analysis for each compound at each time point. All experiments were performed in duplicate. The LC system comprised a Shimadzu liquid chromatograph separation system equipped with degasser DGU-20A3, solvent delivery unit LC-20AD, system controller CBM-20A, column oven CTO-10ASVP and CTC Analytics HTC PAL System. Mass spectrometric analysis was performed using an API 4000 instrument from AB Inc. (Canada) with an ESI interface. The data acquisition and control system were created using Analyst 1.5 software from ABI Inc. All calculations were carried out using Microsoft Excel (2003). Percent compound remaining at each time point was estimated by determining the peak areas from extracted ion chromatograms.

Half Life [h] | SMILES
6 to 24 | COCCOCCOCCOc1cccc(C2=N[C@@](C)(C(=O)O)CS2)c1OC(=O)C(C)C [Example 6, (S)-2-(2-(isobutyryloxy)-3-(2-(2-(2-methoxyethoxy)ethoxy)ethoxy)phenyl)-4-methyl-4,5-dihydrothiazole-4-carboxylic acid]
1 to 4 | COCCOCCOCCOc1cccc(C2=N[C@@](C)(C(=O)O)CS2)c1OC(=O)N1CCCC1 [Example 3, (S)-2-(3-(2-(2-(2-methoxyethoxy)ethoxy)ethoxy)-2-(pyrrolidine-1-carbonyloxy)phenyl)-4-methyl-4,5-dihydrothiazole-4-carboxylic acid]
>24 | COCCOCCOCCOc1cccc(C2=N[C@@](C)(C(=O)OC(C)C)CS2)c1OC(=O)N1CCCC1 [Example 2, (S)-isopropyl 2-(3-(2-(2-(2-methoxyethoxy)ethoxy)ethoxy)-2-(pyrrolidine-1-carbonyloxy)phenyl)-4-methyl-4,5-dihydrothiazole-4-carboxylate]
1 to 4 | COCCOCCOCCOc1cccc(C2=N[C@@](C)(C(=O)OC(C)C)CS2)c1O [Example 1, (S)-isopropyl 2-(2-hydroxy-3-(2-(2-(2-methoxyethoxy)ethoxy)ethoxy)phenyl)-4-methyl-4,5-dihydrothiazole-4-carboxylate]

SMILES | Half Life [h]
COCCOCCOCCOc1cccc(C2=N[C@@](C)(C(=O)O)CS2)c1OC(=O)N(C)c1ccccc1 [Example 5, (S)-2-(3-(2-(2-(2-methoxyethoxy)ethoxy)ethoxy)-2-(methyl(phenyl)carbamoyloxy)phenyl)-4-methyl-4,5-dihydrothiazole-4-carboxylic acid] | 0.5 to 1
COCCOCCOCCOc1cccc(C2=N[C@@](C)(C(=O)OC(C)C)CS2)c1OC(=O)N(C)c1ccccc1 [Example 4, (S)-isopropyl 2-(3-(2-(2-(2-methoxyethoxy)ethoxy)ethoxy)-2-(methyl(phenyl)carbamoyloxy)phenyl)-4-methyl-4,5-dihydrothiazole-4-carboxylate] | >24
